Data from US8524766B2, “Modulators of dopamine neurotransmission” (NSAB, Filial af Neurosearch Sweden AB, Sverige, priority 2008, dated 2013).
Counter-ions that a name gives are not always drawn.

melting point [°C]	Structure (SMILES)
159	CC1CCCN(C[C@@H]2COc3ccc(S(C)(=O)=O)cc3O2)C1 (stereo partly shown) (as salt: fumaric acid salt)
228	CCCNC[C@@H]1COc2ccc(S(C)(=O)=O)cc2O1 (as salt: hydrochloric acid salt) [Example 2, N-{[(2R)-7-(METHYLSULFONYL)-2,3-DIHYDRO-1,4-BENZODIOXIN-2-YL]METHYL}-PROPAN-1-AMINE]
270	CCNC[C@H]1COc2ccc(S(C)(=O)=O)c(F)c2O1 (as salt: hydrochloric acid salt)
213	CC(C)CNC[C@@H]1COc2ccc(S(C)(=O)=O)cc2O1 (as salt: hydrochloric acid salt)
221	CS(=O)(=O)c1ccc2c(c1)OC(CN1CCCC1)CO2 (stereo not shown) (as salt: hydrochloric acid salt)
227	CS(=O)(=O)c1ccc2c(c1)O[C@@H](CN1CCCCC1)CO2 (as salt: hydrochloric acid salt) [Example 7, 1-{[(2S)-7-(METHYLSULFONYL)-2,3-DIHYDRO-1,4-BENZODIOXIN-2-YL]METHYL}PIPERIDINE]
261	CCNCC1COc2ccc(S(C)(=O)=O)cc2O1 (stereo not shown) (as salt: hydrochloric acid salt)
192	CCCNC[C@H]1COc2c(F)cc(S(C)(=O)=O)cc2O1 (as salt: hydrochloric acid salt) [Example 76, N-{[(2S)-5-FLUORO-7-(METHYLSULFONYL)-2,3-DIHYDRO-1,4-BENZODIOXIN-2-YL]METHYL}-PROPAN-1-AMINE]
226	CCCNC[C@H]1COc2c(F)cc(S(C)(=O)=O)cc2O1 (as salt: hydrochloric acid salt) [Example 21, N-{[(2S)-5-FLUORO-7-(METHYLSULFONYL)-2,3-DIHYDRO-1,4-BENZODIOXIN-2-YL]METHYL}PROPAN-1-AMINE]
242	CC(C)(C)CNC[C@H]1COc2ccc(S(C)(=O)=O)cc2O1 (as salt: hydrochloric acid salt)
196.2 to 196.5	CC(C)NC[C@H]1COc2ccc(S(=O)(=O)C(F)(F)F)cc2O1 (as salt: hydrochloric acid salt) [Example 98, N-({(2S)-7-[(TRIFLUOROMETHYL)SULFONYL]-2,3-DIHYDRO-1,4-BENZODIOXIN-2-YL}METHYL)PROPAN-2-AMINE]
262	CNC[C@H]1COc2c(Cl)cc(S(C)(=O)=O)cc2O1 (as salt: hydrochloric acid salt)
256	CCNCC1COc2c(F)cc(S(C)(=O)=O)cc2O1 (stereo not shown) (as salt: hydrochloric acid salt) [Example 18, N-{[5-FLUORO-7-(METHYLSULFONYL)-2,3-DIHYDRO-1,4-BENZODIOXIN-2-YL]METHYL}ETHANAMINE]
273	CNCC1COc2ccc(S(C)(=O)=O)cc2O1 (stereo not shown) (as salt: hydrochloric acid salt) [Example 9, N-METHYL-1-[7-(METHYLSULFONYL)-2,3-DIHYDRO-1,4-BENZODIOXIN-2-YL]METHANAMINE]
223	CCCNCC1COc2ccc(S(C)(=O)=O)cc2O1 (stereo not shown) (as salt: hydrochloric acid salt) [Example 1, N-{[7-(METHYLSULFONYL)-2,3-DIHYDRO-1,4-BENZODIOXIN-2-YL]METHYL}-PROPAN-1-AMINE]
243	CNCC1COc2c(F)cc(S(C)(=O)=O)cc2O1 (stereo not shown) (as salt: hydrochloric acid salt)
267	CCNC[C@H]1COc2c(Cl)cc(S(C)(=O)=O)cc2O1 (as salt: hydrochloric acid salt)
248	CNC[C@H]1COc2ccc(S(C)(=O)=O)cc2O1 (as salt: hydrochloric acid salt) [Example 10, N-METHYL-1-[(2S)-7-(METHYLSULFONYL)-2,3-DIHYDRO-1,4-BENZODIOXIN-2-YL]METHANAMINE]
226	CS(=O)(=O)c1ccc2c(c1)O[C@H](CN1CCCCC1)CO2 (as salt: hydrochloric acid salt) [Example 8, 1-{[(2R)-7-(METHYLSULFONYL)-2,3-DIHYDRO-1,4-BENZODIOXIN-2-YL]METHYL}PIPERIDINE]
